Test results taken from the CheMixHub drug solubility set.

Experiment: xn = mol fraction of the nth substance listed, in the solute-free solvent

CC(N)C(=O)O (centres undefined) + O + CC(C)O
solubility (g/100 g solution)
Conditions	x2 = 0.1	x2 = 0.2	x2 = 0.3	x2 = 0.4	x2 = 0.5	x2 = 0.6	x2 = 0.7	x2 = 0.8	x2 = 0.9
283.15 K	0.0186	0.0381	0.0478	0.104	0.185	0.376	0.772	1.58	3.5
293.15 K	0.0303	0.046	0.0604	0.124	0.223	0.459	1.01	2.08	4.48
303.15 K	0.0379	0.0557	0.0726	0.143	0.267	0.552	1.25	2.62	5.51
313.15 K	0.0427	0.0643	0.0784	0.158	0.316	0.704	1.55	3.3	6.91
323.15 K	0.0448	0.0801	0.113	0.167	0.372	0.842	1.85	4.04	8.23

OCCN(CCO)c1nc(N2CCCCC2)c2nc(N(CCO)CCO)nc(N3CCCCC3)c2n1 + CC(C)O + O
solubility (g/100 g solution)
Conditions	293.15 K	298.15 K	303.15 K	308.15 K	313.15 K	318.15 K	323.15 K	328.15 K
x2 = 0.3	4.66	6.62	8.49	11.6	14.9	19.9	27.3	32.8
x2 = 0.4	7.42	9.61	12.4	15.3	20.2	25.6	32.3	39.9
x2 = 0.5	8.69	11.8	14.9	18.1	21.7	27.7	33.4	39.5
x2 = 0.6	9.25	11.6	14.6	18	20.8	26.6	31.7	37.5
x2 = 0.7	8.37	9.97	12.7	15.8	19.1	23.7	28.6	33.6
x2 = 0.8	6.58	8.26	10.4	13.2	15.7	20	24	29
x2 = 0.9	4.8	6.08	7.64	9.93	11.6	15.1	18.8	23.2

Nc1nccnc1Cl + CN(C)C=O + O
solubility (g/100 g solution)
Conditions	278.15 K	283.15 K	288.15 K	293.15 K	298.15 K	303.15 K	308.15 K	313.15 K	318.15 K	323.15 K
x2 = 0.02666	0.123	0.162	0.208	0.257	0.308	0.359	0.41	0.469	0.522	0.579
x2 = 0.05806	0.379	0.491	0.623	0.761	0.903	1.04	1.18	1.34	1.47	1.62
x2 = 0.09556	0.721	0.929	1.17	1.43	1.69	1.95	2.2	2.48	2.72	2.98
x2 = 0.1412	1.01	1.3	1.64	2.01	2.38	2.75	3.11	3.5	3.86	4.23
x2 = 0.1978	1.14	1.5	1.9	2.35	2.8	3.27	3.75	4.24	4.69	5.16
x2 = 0.27	1.26	1.69	2.14	2.67	3.17	3.72	4.29	4.84	5.41	6.03
x2 = 0.3652	1.38	1.82	2.33	2.93	3.56	4.17	4.81	5.48	6.15	6.86
x2 = 0.4965	1.5	2.02	2.55	3.24	3.93	4.64	5.37	6.21	7	7.83
x2 = 0.6893	1.59	2.12	2.72	3.45	4.22	5.01	5.87	6.75	7.69	8.67

Cc1ncc(C[n+]2csc(CCO)c2C)c(N)n1.O=[N+]([O-])[O-] + O + CC(C)O
solubility (g/100 g solution)
Conditions	278.15 K	283.15 K	288.15 K	293.15 K	298.15 K	303.15 K	308.15 K	313.15 K
x2 = 0.3	0.0345	0.0413	0.051	0.06	0.0744	0.093	0.115	0.151
x2 = 0.4	0.0937	0.119	0.15	0.172	0.199	0.243	0.297	0.385
x2 = 0.5	0.228	0.257	0.305	0.372	0.453	0.573	0.715	0.897
x2 = 0.6	0.364	0.439	0.552	0.705	0.814	1.01	1.28	1.57
x2 = 0.7	0.637	0.765	0.916	1.12	1.38	1.71	2.11	2.61
x2 = 0.8	0.968	1.15	1.39	1.74	2.15	2.63	3.14	3.84
x2 = 0.9	1.18	1.47	1.83	2.33	2.85	3.48	4.26	5.2

COc1cc2c(cc1OC)-c1cc3ccc(OC)c(OC)c3c[n+]1CC2.[Cl-] + O + CC(O)CO
solubility (g/100 g solution)
Conditions	283.15 K	288.15 K	293.15 K	298.15 K	303.15 K	308.15 K	313.15 K	318.15 K	323.15 K	328.15 K
x2 = 0.3194	0.0156	0.0224	0.0316	0.0473	0.0678	0.0953	0.132	0.184	0.251	0.339
x2 = 0.5135	0.0475	0.0664	0.0917	0.133	0.186	0.256	0.347	0.47	0.626	0.826
x2 = 0.6441	0.104	0.142	0.193	0.274	0.376	0.505	0.672	0.891	1.17	1.51
x2 = 0.7379	0.183	0.245	0.329	0.457	0.614	0.811	1.06	1.38	1.78	2.26
x2 = 0.8085	0.279	0.368	0.512	0.702	0.905	1.16	1.5	1.92	2.41	3
x2 = 0.8636	0.395	0.513	0.673	0.9	1.21	1.57	1.97	2.46	3.04	3.73
x2 = 0.9079	0.537	0.688	0.893	1.17	1.55	1.96	2.44	3	3.69	4.46
x2 = 0.9441	0.72	0.971	1.23	1.57	1.95	2.41	2.97	3.63	4.39	5.26
x2 = 0.9744	0.947	1.18	1.5	1.9	2.41	2.97	3.61	4.32	5.17	6.09

Nc1cccc(S(=O)(=O)c2cccc(N)c2)c1 + CO + O
solubility (g/100 g solution)
Conditions	283.15 K	288.15 K	293.15 K	298.15 K	303.15 K	308.15 K	313.15 K	318.15 K	323.15 K	328.15 K
x2 = 0.05881	0.0853	0.113	0.149	0.202	0.26	0.333	0.429	0.552	0.675	0.867
x2 = 0.1233	0.182	0.244	0.31	0.4	0.526	0.654	0.83	1.04	1.28	1.59
x2 = 0.1942	0.315	0.413	0.533	0.675	0.849	1.08	1.34	1.67	2.05	2.48
x2 = 0.2727	0.512	0.66	0.84	1.04	1.32	1.63	2	2.41	2.93	3.56
x2 = 0.3599	0.734	0.92	1.16	1.44	1.77	2.18	2.64	3.19	3.81	4.63
x2 = 0.4576	0.977	1.22	1.53	1.89	2.32	2.81	3.41	4.06	4.85	5.78
x2 = 0.5675	1.28	1.57	1.95	2.42	2.93	3.58	4.23	5.08	5.95	7.08
x2 = 0.6923	1.59	1.95	2.37	2.95	3.56	4.28	5.14	6.1	7.13	8.38
x2 = 0.835	1.93	2.32	2.83	3.42	4.15	4.97	5.91	6.97	8.2	9.54

Cc1c(Br)cccc1C(=O)O + C1CCOC1 + CCOC(C)=O
solubility (g/100 g solution)
Conditions	x2 = 0.161	x2 = 0.318	x2 = 0.471	x2 = 0.62	x2 = 0.765	x2 = 0.907
278.15 K	11.6	16.7	21.6	26.2	30	35
283.15 K	12.9	18.1	23.4	28.1	32	37.2
288.15 K	14.2	19.7	24.9	29.9	33.8	39.1
293.15 K	15.4	21.3	26.6	31.7	35.6	41.2
298.15 K	16.9	22.7	28.2	33.4	37.3	43
303.15 K	18.3	24.4	30	35.3	39	44.9
308.15 K	19.8	26	31.6	36.9	40.6	46.5
313.15 K	21.6	27.6	33.3	38.6	42.1	48.1
318.15 K	23.4	29.4	35.1	40.2	43.6	49.6
323.15 K	25.3	31.3	36.7	41.8	44.9	51.1
328.15 K	27.6	33.3	38.5	43.6	46.2	52.5

OCCN(CCO)c1nc(N2CCCCC2)c2nc(N(CCO)CCO)nc(N3CCCCC3)c2n1 + CCO + O
solubility (g/100 g solution)
Conditions	293.15 K	298.15 K	303.15 K	308.15 K	313.15 K	318.15 K	323.15 K	328.15 K
x2 = 0.3	1.64	1.81	2.52	3.79	5.33	8.14	12.5	18
x2 = 0.4	2.59	3.74	5.59	7.99	10.8	16	22.2	29.9
x2 = 0.5	4.37	6.13	8.44	11.4	15.2	20.7	28.1	36.2
x2 = 0.6	5.48	7.13	9.58	13.1	16.6	22.2	29.3	37
x2 = 0.7	5.8	7.49	9.93	13.1	16.7	21.9	28.4	35.8
x2 = 0.8	5.06	6.52	8.76	11.6	14.9	19.3	25.6	32.2
x2 = 0.9	4.28	5.36	7.23	9.43	11.7	15.1	20.7	26.7
